Tests used:
[1] = biological target: T1, recombinant 11βHSD1 protein (Homo sapiens, UniProt P28845); experiment: SPA (Scintillation Proximity Assay) test of in vitro inhibition of the enzyme 11βHSD1, 384-well format; assay type: biochemical; conditions: 3H-cortisone and NADPH, SPA beads, cortisol formed; read-out: IC50 (concentration which inhibits 50% of the activity of 11βHSD1)
T1 construct: made in house; host or cells: Saccharomyces cerevisiae
Excerpt: The compounds according to the invention formed the subject of pharmacological assays which make it possible to determine their inhibiting effect on the enzyme 11βHSD1, which is involved in the metabolism of lipids and the metabolism of glucose.
These assays consisted in measuring the in vitro inhibiting activity of the compounds of the invention on the enzyme 11βHSD1 by virtue of an SPA (Scintillation Proximity Assay) test in 384-well format. The recombinant 11βHSD1 protein was produced in the yeast S. cerevisiae. The reaction was carried out by incubating the enzyme in the presence of ^3H-cortisone and of NADPH, in the absence or in the presence of an increasing concentration of inhibitor. SPA beads coupled to an antimouse antibody, which are preincubated with an anticortisol antibody, made it possible to measure the amount of cortisol formed during the reaction.

[2] = biological target: T2, 11βHSD1 in the eyes (Homo sapiens, UniProt P28845); conditions: healthy volunteers, treatment for seven days; cited from earlier work
T2 construct: The 11βHSD1 is located in the nonpigmented epithelial calls; host or cells: healthy volunteers (in vivo, ocular tissue)
T2 sequence (P28845 whole entry): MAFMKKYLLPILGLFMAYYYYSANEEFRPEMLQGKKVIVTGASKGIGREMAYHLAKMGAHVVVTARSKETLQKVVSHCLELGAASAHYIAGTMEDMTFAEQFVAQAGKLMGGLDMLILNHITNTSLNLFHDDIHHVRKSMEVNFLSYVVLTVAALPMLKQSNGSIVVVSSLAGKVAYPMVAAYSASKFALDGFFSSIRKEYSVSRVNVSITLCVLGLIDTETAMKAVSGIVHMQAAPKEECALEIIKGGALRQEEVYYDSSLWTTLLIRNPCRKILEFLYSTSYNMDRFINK

T1 sequence (P28845 whole entry, species assumed): as the sequence (P28845 whole entry) above

IC50 [1] [nM]	melting point [°C]	Compound	reduction of the intraocular pressure (IOP) [2] [%]
405	123 to 125	O=C(NC1C2CC3CC(C2)CC1C3)N1CCN(c2ccc(OCc3ncccn3)cc2)c2ccccc21 (centres unmarked) [Compound No. 3, 4-[4-(Pyrimidin-2-ylmethoxy)Phenyl]-3,4-dihydro-2H-quinoxaline-1-carboxylic Acid adamantan-2-ylamide]	
28	160	CS(=O)(=O)N1CCC(O)(c2ccc(N3CCN(C(=O)N[C@H]4C5CC6CC4C[C@@](O)(C6)C5)c4ccccc43)cc2)CC1 [Compound No. 16, Trans-4-[4-(4-Hydroxy-1-(methanesulphonyl)Piperidin-4-yl)Phenyl]-3,4-dihydro-2H-quinoxaline-1-carboxylic Acid (5-hydroxy-adamantan-2-yl)Amide]	
	160	CS(=O)(=O)N1CCN(c2ccc(N3CCN(C(=O)N[C@H]4C5CC6CC4C[C@@](CO)(C6)C5)c4ccccc43)cc2)CC1 [Compound No. 21, Trans-4-[4-(4-(Methanesulphonyl)Piperazin-1-yl)Phenyl]-3,4-dihydro-2H-quinoxaline-1-carboxylic Acid (5-(hydroxymethyl)Adamantan-2-yl)Amide]	
	165 to 200	CS(=O)(=O)N1CCN(c2ccc(N3CCN(C(=O)N[C@H]4C5CC6CC4C[C@@](F)(C6)C5)c4ccccc43)cc2)CC1 [Compound No. 40, Trans-4-[4-(4-(Methanesulphonyl)Piperazin-1-yl)Phenyl]-3,4-dihydro-2H-quinoxaline-1-carboxylic Acid (5-fluoroadamantan-2-yl)Amide]	
	131	O=C(N[C@H]1C2CC3CC1C[C@@](O)(C3)C2)N1CCN(c2ccc(N3CCC(O)CC3)cc2)c2ccccc21 [Compound No. 51, Trans-4-[4-(4-Hydroxypiperidin-1-yl)Phenyl]-3,4-dihydro-2H-quinoxaline-1-carboxylic Acid (5-hydroxyadamantan-2-yl)Amide]	
130	250	CC(=O)N[C@]12CC3CC(C1)[C@H](NC(=O)N1CCN(c4ccc(N5CCN(S(C)(=O)=O)CC5)cc4)c4ccccc41)C(C3)C2 [Compound No. 137, Trans-4-[4-(4-(Methanesulphonyl)Piperazin-1-yl)Phenyl]-3,4-dihydro-2H-quinoxaline-1-carboxylic Acid (5-acetylaminoadamantan-2-yl)Amide]	
	175	CCS(=O)(=O)N1CCN(c2ccc(N3CCN(C(=O)N[C@H]4C5CC6CC4C[C@@](C(N)=O)(C6)C5)c4ccccc43)nc2)CC1 [Compound No. 149, Trans-4-[5-(4-(Ethanesulphonyl)Piperazin-1-yl)Pyridin-2-yl]-3,4-dihydro-2H-quinoxaline-1-carboxylic Acid (5-carbamoyladamantan-2-yl)Amide]	
		CC1(C)[C@@H](OC(=O)CCC(=O)O)CC[C@]2(C)[C@H]3C(=O)C=C4[C@@H]5C[C@@](C)(C(=O)O)CC[C@]5(C)CC[C@@]4(C)[C@]3(C)CC[C@@H]12 [carbenoxolone]	18
624	163 to 169	O=C(c1ccc(-c2csc(N3CCN(C(=O)NC4C5CC6CC(C5)CC4C6)c4ccccc43)n2)cc1)N1CCOCC1 (centres unmarked) [compound 6]	
28	197	O=C(NC1C2CC3CC1CC(O)(C3)C2)N1CCN(c2ccc(Oc3nccc(C(F)(F)F)n3)cc2)c2ccccc21 (centres unmarked) [compound 14]	
49	103	CS(=O)(=O)N1CC=C(c2ccc(N3CCN(C(=O)NC4C5CC6CC4CC(O)(C6)C5)c4ccccc43)cc2)CC1 (centres unmarked) [compound 15]	
17	127	CC(C)N1CCN(C(=O)c2ccc(-c3ccc(N4CCN(C(=O)NC5C6CC7CC5CC(O)(C7)C6)c5ccccc54)cc3)nc2)CC1 (centres unmarked) [compound 27]	
94	95	O=C(NC1C2CC3CC1CC(O)(C3)C2)N1CCN(c2ccc(N3CCC(F)(F)CC3)cc2)c2ccccc21 (centres unmarked) [compound 30]	
	138 to 160	CCS(=O)(=O)N1CCN(c2ccc(N3CCN(C(=O)N[C@H]4C5CC6CC4C[C@@](O)(C6)C5)c4ccccc43)cc2)CC1 [compound 34, trans-4-[4-(4-(Ethanesulphonyl)Piperazin-1-yl)Phenyl]-3,4-dihydro-2H-quinoxaline-1-carboxylic Acid (5-hydroxyadamantan-2-yl)Amide]	
7	193 to 194	CC(C)Oc1ccc(-c2ccc(N3CCN(C(=O)NC4C5CC6CC4CC(C(N)=O)(C6)C5)c4ccccc43)cc2)nc1 (centres unmarked) [compound 85]	
8	230	NC(=O)C12CC3CC(C1)C(NC(=O)N1CCN(c4ccc(N5CCN(S(=O)(=O)C6CCNCC6)CC5)cc4)c4ccccc41)C(C3)C2 (centres unmarked) [compound 95]	
19	228	CC(C)(C)N1CCN(c2ccc(N3CCN(C(=O)NC4C5CC6CC4CC(C(N)=O)(C6)C5)c4ccccc43)cc2)CC1 (centres unmarked) [compound 96]	
8	161	O=C(NC1C2CC3CC1CC(O)(C3)C2)N1CCN(c2ccc(N3CCN(C4CC4)CC3)cn2)c2ccccc21 (centres unmarked) [compound 118]	
7	188	O=C(NC1C2CC3CC1CC(O)(C3)C2)N1CCN(c2ccc(N3CCN(S(=O)(=O)C4CCC4)CC3)cn2)c2ccccc21 (centres unmarked) [compound 119]	
7		COCCOCCS(=O)(=O)N1CCN(c2ccc(N3CCN(C(=O)NC4C5CC6CC4CC(C(N)=O)(C6)C5)c4ccccc43)cc2)CC1 (centres unmarked) [compound 125]	
4		CC(C)(C)N1CCN(c2ccc(N3CCN(C(=O)NC4C5CC6CC4CC(C(N)=O)(C6)C5)c4ccccc43)nc2)CC1 (centres unmarked) [compound 128]	
187	127	CS(=O)(=O)N1CCC2(CCN(c3ccc(N4CCN(C(=O)NC5C6CC7CC5CC(O)(C7)C6)c5ccccc54)cc3)C2)C1 (centres unmarked) [compound 132]	
	194 to 200	CC(C)(CO)N1CCN(c2ccc(N3CCN(C(=O)N[C@H]4C5CC6CC4C[C@@](C(N)=O)(C6)C5)c4ccccc43)cc2)CC1 [compound 152, Trans-4-{4-[4-(2-Hydroxy-1,1-dimethylethyl)Piperazin-1-yl]phenyl}-3,4-dihydro-2H-quinoxaline-1-carboxylic Acid (5-carbamoyladamantan-2-yl)Amide]	
	209	CC(C)CN1CCN(c2ccc(N3CCN(C(=O)N[C@H]4C5CC6CC4C[C@@](C(N)=O)(C6)C5)c4ccccc43)nc2)CC1 [compound 158, Trans-4-[5-(4-Isobutylpiperazin-1-yl)Pyridin-2-yl]-3,4-dihydro-2H-quinoxaline-1-carboxylic Acid (5-carbamoyladamantan-2-yl)Amide]	
	188	N#C[C@]12CC3CC(C1)[C@H](NC(=O)N1CCN(c4ccc(N5CCN(S(=O)(=O)C6CC6)CC5)cn4)c4ccccc41)C(C3)C2 [compound 165, Trans-4-[5-(4-(Cyclopropanesulphonyl)Piperazin-1-yl)Pyridin-2-yl]-3,4-dihydro-2H-quinoxaline-1-carboxylic Acid (5-cyanoadamantan-2-yl)Amide]	
	228	CC(C)(C)N1CCC(c2ccc(N3CCN(C(=O)N[C@H]4C5CC6CC4C[C@@](C(N)=O)(C6)C5)c4ccccc43)nc2)CC1 [compound 170, Trans-4-(1′-(tert-Butyl)-1′,2′,3′,4′,5′,6′-hexahydro-[3,4′]bipyridinyl-6-yl)-3,4-dihydro-2H-quinoxaline-1-carboxylic Acid (5-carbamoyladamantan-2-yl)Amide]	
	204	CS(=O)(=O)CCN1CCN(c2ccc(N3CCN(C(=O)N[C@H]4C5CC6CC4C[C@@](C(N)=O)(C6)C5)c4ccccc43)nc2)CC1 [compound 178, Trans-4-{5-[4-(2-(Methanesulphonyl)Ethyl)Piperazin-1-yl]-pyridin-2-yl}-3,4-dihydro-2H-quinoxaline-1-carboxylic Acid (5-carbamoyladamantan-2-yl)Amide]	

Source: US8211892B2, “Tetrahydroquinoxaline urea derivatives” (Sanofi-Aventis, priority 2008, dated 2012)
